Measured values from patent US20240207300A1, “COMBINATION THERAPIES INCLUDING MYT1 INHIBITORS” (Repare Therapeutics Inc., priority 2021, published 2024).

Target: recombinant human Myt1 (Homo sapiens (Human), UniProt Q99640)
Experiment: Recombinant human Myt1 kinase ADP-Glo enzymatic assay
Format: biochemical
Settings: recombinant human Myt1 18 nM, ATP 10 μM
Description: Detection of Myt1 kinase activity utilized a recombinant human Myt1 kinase assay measuring the hydrolysis of ATP using a commercially available ADP-Glo Assay (ADP-Glo™ Kinase Assay from Promega, 10 000 assays, #V9102). […] After this, 5 μL of compounds (diluted in reaction buffer to 0.5% DMSO) was added to the microplate and the plate was spun briefly and incubated at 22° C. for 15 minutes. Ultra-Pure Adenosine Triphosphate (ATP) solution (ADP-Glo kit from Promega) was diluted in reaction buffer and 5 μL was added to the microplate, spun down briefly and incubated for 60 minutes at 30° C. […] After the 60-minute incubation, 15 μL of ADP-Glo reagent was added and the plate was spun briefly and sealed and incubated in the dark for 40 minutes at 22° C. […] Luminescence was read using the Envision (250 ms integration). The IC50 and the % max inhibition were calculated for each inhibitor compound tested.

Chain of recombinant human Myt1 (Q99640 whole entry): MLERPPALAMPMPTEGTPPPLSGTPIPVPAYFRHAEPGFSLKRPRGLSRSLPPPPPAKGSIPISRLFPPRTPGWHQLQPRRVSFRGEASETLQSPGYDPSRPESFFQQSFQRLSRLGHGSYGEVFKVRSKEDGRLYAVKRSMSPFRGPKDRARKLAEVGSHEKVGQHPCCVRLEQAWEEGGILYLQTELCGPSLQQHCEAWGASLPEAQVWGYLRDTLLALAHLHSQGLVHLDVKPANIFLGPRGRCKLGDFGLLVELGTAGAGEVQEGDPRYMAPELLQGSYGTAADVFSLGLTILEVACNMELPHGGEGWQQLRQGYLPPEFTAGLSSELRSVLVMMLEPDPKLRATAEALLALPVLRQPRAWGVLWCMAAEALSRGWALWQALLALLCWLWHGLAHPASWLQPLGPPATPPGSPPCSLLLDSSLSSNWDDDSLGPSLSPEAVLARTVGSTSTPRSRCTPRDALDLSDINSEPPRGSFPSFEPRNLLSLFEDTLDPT

With Cc1ccc(O)c(C)c1-n1c(N)c(C(N)=O)c2c(C)c(Cl)cnc21 [Compound 313] the IC50 was < 10 nM.

For Cc1ccc(O)c(C)c1-n1c(N)c(C(N)=O)c2cc(Br)c(C)nc21 [Compound 187], the IC50 was < 10 nM.

Cc1ccc(O)c(C)c1-n1c(N)c(C(N)=O)c2nc(C3(C(F)(F)F)CC3)cnc21 [Compound 198, 6-amino-5-(3-hydroxy-2,6-dimethyl-phenyl)-2-[1-(trifluoromethyl)cyclopropyl]pyrrolo[2,3-b]pyrazine-7-carboxamide] was tested, and the IC50 was < 10 nM.

For Cc1ccc(O)c(C)c1-n1c(N)c(C(N)=O)c2ncc(C#CC(C)O)nc21 (centres unmarked) [Compound 241], the IC50 was 24 nM.

For Cc1ccc(O)c(C)c1-n1c(N)c(C(N)=O)c2cc(-c3ccccn3)cnc21 [Compound 295], the IC50 was < 10 nM.

For Cc1ccc(O)c(C)c1-n1c(N)c(C(N)=O)c2cc(C3=CCOCC3)cnc21 [Compound 304], the IC50 was < 10 nM.

With Cc1ccc(O)c(C)c1-n1c(N)c(C(N)=O)c2cccnc21 [Compound 328] the IC50 was < 10 nM.

With Cc1ccc(O)c(C)c1-n1c(N)c(C(N)=O)c2cc(N3CCCC3=O)cnc21 [Compound 298] the IC50 was < 10 nM.

With Cc1ccc(O)c(C)c1-n1c(N)c(C(N)=O)c2cc(I)cnc21 [Compound 319] the IC50 was < 10 nM.

Compound Cc1ccc(O)c(C)c1-n1c(N)c(C(N)=O)c2ncc(C#CC3OCCC3Cl)nc21 (centres unmarked) [Compound 233] has an IC50 of 10 nM.

Cc1c(O)ccc(Cl)c1-n1c(N)c(C(N)=O)c2nc(-c3nccs3)cnc21 [Compound 42] was tested, and the IC50 was < 10 nM.

With Cc1ccc(O)c(C)c1-n1cc(C(N)=O)c2cc(C3CC3)cnc21 [Compound 143] the IC50 was < 10 nM.

C=C(C)c1cnc2c(n1)c(C(N)=O)c(N)n2-c1c(C)ccc(O)c1C [Compound 202] was tested, and the IC50 was < 10 nM.

In the case of COCCOCC#Cc1cnc2c(n1)c(-c1c(C)ccc(O)c1C)c(N)n2C(N)=O [Compound 240], the IC50 is reported as 191 nM.

Cc1ccc(O)c(C)c1-n1c(N)c(C(N)=O)c2nc(N3CCCCC3)cnc21 [Compound 81] was tested, and the IC50 was < 10 nM.

With Cc1ccc(O)c(C)c1-n1c(N)c(C(N)=O)c2nc(-c3ccc(F)cn3)cnc21 [Compound 64] the IC50 was < 10 nM.

With Cc1ccc(O)c(C)c1-n1c(N)c(C(N)=O)c2nc(N3CCCC3)cnc21 [Compound 85] the IC50 was < 10 nM.

Cc1ccc2c(C(N)=O)c(N)n(-c3c(C)ccc(O)c3C)c2n1 [Compound 193] was tested, and the IC50 was < 10 nM.

In the case of Cc1ccc(O)c(C)c1-n1c(N)c(C(N)=O)c2nc(C(C)(C)F)cnc21 [Compound 178, 6-amino-2-(1-fluoro-1-methyl-ethyl)-5-(3-hydroxy-2,6-dimethyl-phenyl)pyrrolo[2,3-b]pyrazine-7-carboxamide], the IC50 is reported as < 10 nM.

With Cc1ccc(O)c(C)c1-n1c(N)c(C(N)=O)c2nc3c(nc21)CCCC3 [Compound 262] the IC50 was < 10 nM.

Cc1ccc(O)c(C)c1-n1c(N)c(C(N)=O)c2cc(C(C)(C)O)cnc21 [Compound 131] was tested, and the IC50 was < 10 nM.

Cc1ccc(O)c(C)c1-n1c(N)c(C(N)=O)c2nc(C3CCC3)cnc21 [Compound 173, 6-amino-2-cyclobutyl-5-(3-hydroxy-2,6-dimethyl-phenyl)pyrrolo[2,3-b]pyrazine-7-carboxamide] was tested, and the IC50 was < 10 nM.

Cc1ccc(O)c(C)c1-n1c(N)c(C(N)=O)c2nc(N3CC4CCC(C3)O4)cnc21 [Compound 92] was tested, and the IC50 was < 10 nM.

In the case of CNC(=O)C1CCN(c2cnc3c(n2)c(C(N)=O)c(N)n3-c2c(C)ccc(O)c2C)CC1 [Compound 46, 6-amino-5-(3-hydroxy-2,6-dimethyl-phenyl)-2-[4-(methylcarbamoyl)-1-piperidyl]pyrrolo[2,3-b]pyrazine-7-carboxamide], the IC50 is reported as < 10 nM.

With Cc1ccc(O)c(C)c1-n1c(N)c(C(N)=O)c2ncc(C#CC3(O)CCOCC3)nc21 [Compound 231] the IC50 was < 10 nM.

With Cc1ccc(O)c(C)c1-n1c(N)c(C(N)=O)c2nc(-c3ccns3)cnc21 [Compound 41] the IC50 was < 10 nM.

In the case of Cc1ccc(O)c(C)c1-n1c(N)c(C(N)=O)c2nc(N3CCC(C(=O)N(C)C)CC3)cnc21 [Compound 80], the IC50 is reported as < 10 nM.

With Cc1ccc(O)c(Cl)c1-n1c(N)c(C(N)=O)c2nc(C3CC3)cnc21 [Compound 104] the IC50 was < 10 nM.

In the case of Cc1ccc(O)c(C)c1-n1c(N)c(C(N)=O)c2cc(Br)c(C)nc21 (single isomer, unassigned) [Compound 188], the IC50 is reported as < 10 nM.

In the case of Cc1ccc(O)c(C)c1-n1c(N)c(C(N)=O)c2nc(C3=CCC(C(=O)N(C)C)CC3)cnc21 (centres unmarked) [Compound 58], the IC50 is reported as < 10 nM.

Cc1ccc(O)c(C)c1-n1c(N)c(C(N)=O)c2nc(C(N)=O)cnc21 [Compound 220, 6-amino-5-(3-hydroxy-2,6-dimethyl-phenyl)pyrrolo[2,3-b]pyrazine-2,7-dicarboxamide] was tested, and the IC50 was < 10 nM.

For Cc1ccc(O)c(C)c1-n1c(N)c(C(N)=O)c2nc(-c3cncs3)cnc21 [Compound 37], the IC50 was < 10 nM.

Cc1ccc(O)c(C)c1-n1c(N)c(C(N)=O)c2nc(-c3ccncn3)cnc21 [Compound 57] was tested, and the IC50 was < 10 nM.

In the case of Cc1ccc(O)c(C)c1-n1c(N)c(C(N)=O)c2ncc(C#CC3(O)CCC(F)(F)CC3)nc21 [Compound 242, 6-amino-3-[2-(4,4-difluoro-1-hydroxy-cyclohexyl)ethynyl]-5-(3-hydroxy-2,6-dimethyl-phenyl)pyrrolo[2,3-b]pyrazine-7-carboxamide], the IC50 is reported as < 10 nM.

Compound Cc1ccc(O)c(C)c1-n1c(N)c(C(N)=O)c2ncc(C#CC3OCCC3O)nc21 (centres unmarked) [Compound 234] has an IC50 of 14 nM.

In the case of Cc1ccc(O)c(C)c1-n1c(N)c(C(N)=O)c2cc(C#N)cnc21 [Compound 312], the IC50 is reported as < 10 nM.

With Cc1nc2c(C(N)=O)c(N)n(-c3c(Cl)ccc(O)c3C)c2nc1C [Compound 168] the IC50 was < 10 nM.

With Cc1ccc(O)c(C)c1-n1c(N)c(C(N)=O)c2nc(-c3cn(C)cn3)cnc21 [Compound 76] the IC50 was < 10 nM.

For Cc1ccc(O)c(C)c1-n1c(N)c(C(N)=O)c2cc(C(C)C)cnc21 [Compound 138], the IC50 was < 10 nM.

With Cc1ccc(-c2cnc3c(n2)c(C(N)=O)c(N)n3-c2c(C)ccc(O)c2C)nc1 [Compound 61] the IC50 was < 10 nM.

With Cc1ccc(O)c(C)c1-n1c(N)c(C(N)=O)c2nc(-c3nc4ccccc4s3)cnc21 [Compound 248] the IC50 was < 10 nM.

With Cc1ccc(O)c(C)c1-n1c(N)c(C(N)=O)c2nc(C3=CCCCC3)cnc21 [Compound 86] the IC50 was < 10 nM.

For Cc1ccc(O)c(Cl)c1-n1c(N)c(C(N)=O)c2cc(Cl)cnc21 [Compound 327], the IC50 was < 10 nM.

CC(=O)N1CCN(c2cnc3c(n2)c(C(N)=O)c(N)n3-c2c(C)ccc(O)c2C)CC1 [Compound 87] was tested, and the IC50 was < 10 nM.

In the case of Cc1ccc(O)c(C)c1-n1c(N)c(C(N)=O)c2cc(S(=O)(=O)C3CC3)cnc21 [Compound 311], the IC50 is reported as < 10 nM.

With Cc1ccc(O)c(C)c1-n1c(N)c(C(N)=O)c2nc(C3CC3)c(C)nc21 [Compound 100] the IC50 was < 10 nM.

Cc1ccc(O)c(C)c1-n1c(N)c(C(N)=O)c2nc(-c3ccccn3)cnc21 [Compound 34] was tested, and the IC50 was < 10 nM.

In the case of Cc1ccc(O)c(C)c1-n1c(N)c(C(N)=O)c2cc(Br)cnc21 [Compound 141], the IC50 is reported as < 10 nM.

With CCN(CC)c1cnc2c(n1)c(C(N)=O)c(N)n2-c1c(C)ccc(O)c1C [Compound 88] the IC50 was < 10 nM.

In the case of Cc1ccc(O)c(C)c1-n1c(N)c(C(N)=O)c2nc(-c3nc(C)c(C)s3)cnc21 [Compound 32], the IC50 is reported as < 10 nM.

Cc1ccc(O)c(C)c1-n1c(N)c(C(N)=O)c2nc(-c3c[nH]cn3)cnc21 [Compound 65] was tested, and the IC50 was < 10 nM.

For Cc1ccc(O)c(C)c1-n1c(N)c(C(N)=O)c2ncc(C#CC(C)O)nc21 (centres unmarked) [Compound 229], the IC50 was 52 nM.

In the case of Cc1ccc(O)c(C)c1-n1c(N)c(C(N)=O)c2ncc(C#CCC3CCOCC3)nc21 [Compound 222], the IC50 is reported as < 10 nM.

In the case of Cc1ccc(O)c(C)c1-n1c(N)c(S(C)(=O)=O)c2nc(-c3cnccn3)cnc21 [Compound 278], the IC50 is reported as > 5000 nM.

With Cc1ccc(O)c(C)c1-n1c(N)c(C(N)=O)c2nc(-c3ccnc(C(F)(F)F)c3)cnc21 [Compound 35, 6-amino-5-(3-hydroxy-2,6-dimethyl-phenyl)-2-[2-(trifluoromethyl)-4-pyridyl]pyrrolo[2,3-b]pyrazine-7-carboxamide] the IC50 was < 10 nM.

With C=Cc1cnc2c(n1)c(C(N)=O)c(N)n2-c1c(C)ccc(O)c1C [Compound 259] the IC50 was < 10 nM.

Cc1ccc(O)c(C)c1-n1c(N)c(C(N)=O)c2nc(-c3nccs3)c(C)nc21 [Compound 31, 6-amino-5-(3-hydroxy-2,6-dimethyl-phenyl)-3-methyl-2-thiazol-2-yl-pyrrolo[2,3-b]pyrazine-7-carboxamide] was tested, and the IC50 was < 10 nM.

Cc1ccc(O)c(C)c1-n1c(N)c(C(N)=O)c2nc(C3CCCCC3)cnc21 [Compound 83] was tested, and the IC50 was < 10 nM.

Cc1ccc(O)c(C)c1-n1c(N)c(C(N)=O)c2cc(-c3nccs3)cnc21 [Compound 308] was tested, and the IC50 was < 10 nM.

With Cc1ccc(O)c(C)c1-n1c(N)c(C(N)=O)c2nc(-c3ccnnc3)cnc21 [Compound 250] the IC50 was < 10 nM.

Cc1ccc(O)cc1-n1c(N)c(C(N)=O)c2nc(C3=CCCN(C(=O)OC(C)(C)C)C3)ccc21 [Compound 26] gave an IC50 of 2000 nM.

With Cc1ccc(O)c(C)c1-n1c(N)c(C(N)=O)c2nc(-c3cnccn3)cnc21 [Compound 38] the IC50 was < 10 nM.

Cc1ccc(O)c(C)c1-n1c(N)c(C(N)=O)c2cc(Br)c(C)nc21 (single isomer, unassigned) [Compound 189] was tested, and the IC50 was 1010 nM.

Cc1ccc(O)c(C)c1-n1c(N)c(C(N)=O)c2c(Cl)c(Cl)cnc21 [Compound 316] was tested, and the IC50 was < 10 nM.

In the case of Cc1ccc(O)c(Br)c1-n1c(N)c(C(N)=O)c2cc(Cl)cnc21 [Compound 289], the IC50 is reported as < 10 nM.
